Values after ≈ are worked out from the molar mass of the structure shown.

In general, EC50 refers to the concentration needed to bring the measured effect to its halfway point. What is called CC50 is the concentration that lowers cell viability or growth by half. As usually defined, the solubility is the concentration that dissolves in the medium under given conditions. What is called logD is the decadic logarithm of the distribution of all forms, ionised or not, between an organic phase and buffer at a given pH. The IC50 is the concentration that inhibits the measured activity by half. For orientation: EC90 means the concentration needed for an effect of 90%.

The subject of series [1] is Chikungunya virus. Kind of series: Antiviral activity against CHIKV infected in human NHDF cells assessed as reduction in virus titer in cell supernatant by measuring inhibition of plaque formation using Vero cells at 10 uM pretreated with NHDF cells followed by infected with virus incubated for 24 hrs and measured following infection of supernatants with Vero cells for 48 hrs by plaque based methylene blue dye analysis. In kind it is functional. As to conditions: time 72 hrs.

Series [2] has as its system Chikungunya virus. Kind of series: Antiviral activity against CHIKV infected in human NHDF cells assessed as reduction in virus titer in cell supernatant by measuring inhibition of plaque formation using Vero cells pretreated with NHDF cells followed by infected with virus incubated for 24 hrs and measured following infection of supernatants with Vero cells for 48 hrs by plaque based methylene blue dye analysis. It is filed as functional, organism-based.

A further series concerns NHDF. The series can be described thus: (§1) Cytotoxicity against human NHDF cells assessed as cell viability measured after 24 hrs by Cell Titer Glo luminescent assay. The following applies: nhdf, 24 h. In kind it is cell-based. For orientation: ATP-based viability assays read luminescence as a measure of living cells.
Series [3] can be described thus: Aqueous solubility of the compound. It is filed as physicochemical.
Series [4] is described as follows: as §1. In kind it is cell-based. As to conditions: NHDF cells.
Series [5] can be described thus: Octanol-aqueous buffer distribution coefficient, log D of the compound by LC-MS analysis. It is filed as physicochemical.
Series [6] in a line: Metabolic stability in human liver microsomes assessed as half life in presence of NADPH incubated up to 45 mins by LC-MS/MS analysis. It is filed as ADME, Microsome. (In general: Liver microsomes are vesicles of endoplasmic reticulum, rich in cytochrome P450 enzymes.)
The nature of series [7]: Metabolic stability in mouse liver microsomes assessed as half life in presence of NADPH incubated up to 45 mins by LC-MS/MS analysis. It is filed as ADME, Microsome. More on the design: unit not given here. The following applies: for half-life: liver microsomes.
Series [8] has as its target Dihydroorotate dehydrogenase (quinone), mitochondrial (Homo sapiens, UniProt Q02127).
Series [9] in a line: Cytotoxicity against HEK293 cells at 10 uM. It is filed as cell-based. The following applies: human.
The test system of series [10] is Chikungunya virus. It is filed as functional. The following applies: 181-25, C6, time 48 hrs.
Series [11] has as its system Venezuelan equine encephalitis virus. The series can be described thus: Antiviral activity against Venezuelan equine encephalitis virus TC83 infected in Asian tiger mosquito C6/36 cells assessed as reduction in virus titer in cell supernatant by measuring inhibition of plaque formation using Vero cells and measured following infection of supernatants with Vero cells for 48 hrs pi by serial dilution plaque based methylene blue dye analysis. In kind it is functional.

The subject of a further series is West Nile virus. The series can be described thus: Antiviral activity against West nile virus infected in HEK293 cells assessed as reduction in virus titer in cell supernatant by measuring inhibition of plaque formation using Vero cells at 10 uM measured following infection of supernatants with Vero cells for 48 hrs pi by serial dilution plaque based methylene blue dye analysis. It is filed as functional.

Another series has as its system dengue virus type 2. The series can be described thus: Antiviral activity against DENV2 infected in HEK293 cells assessed as reduction in virus titer in cell supernatant by measuring inhibition of plaque formation using Vero cells at 10 uM measured following infection of supernatants with Vero cells for 48 hrs pi by serial dilution plaque based methylene blue dye analysis. It is filed as functional.

Sequence of Dihydroorotate dehydrogenase (quinone), mitochondrial (Q02127 whole entry): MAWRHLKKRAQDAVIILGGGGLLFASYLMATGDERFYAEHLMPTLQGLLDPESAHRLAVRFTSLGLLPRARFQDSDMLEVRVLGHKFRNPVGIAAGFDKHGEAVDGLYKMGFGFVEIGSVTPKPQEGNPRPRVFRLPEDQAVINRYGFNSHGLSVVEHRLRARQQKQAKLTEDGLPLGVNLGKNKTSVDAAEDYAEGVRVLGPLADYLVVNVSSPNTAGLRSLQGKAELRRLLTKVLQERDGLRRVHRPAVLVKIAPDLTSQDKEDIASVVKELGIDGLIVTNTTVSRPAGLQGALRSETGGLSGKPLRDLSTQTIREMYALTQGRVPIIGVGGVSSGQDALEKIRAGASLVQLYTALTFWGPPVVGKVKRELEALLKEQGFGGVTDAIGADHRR

Turning to `CCOc1cc2c(cc1NC(=O)c1ccc(C(C)(C)C)cc1)CCCC2`, the “log(activity)” value in the series with Chikungunya virus [1] worked out at 1. For the same compound, in the series on Chikungunya virus [2], the EC50 turned out to be 7.78 µM. Further, in the series on NHDF, the CC50 was found to be 3.86 µM.
As for `CC(C)(C)c1ccc(C(=O)Nc2cc3c(cc2O)CCCCC3)cc1`, the “log(activity)” value with Chikungunya virus [1] is listed as 3.5. This compound registered a solubility in [3] (buffer) of 1 µM (≈ 0.337 µg/mL). Also, the EC50 in the series on Chikungunya virus [2] was found to be 0.4 µM. For the same compound, the cytotoxic concentration (CC50) at 24 h in series [4] was > 30 µM. The compound also yielded a log distribution coefficient (logD) in series [5] of 5. The half-life in series [6] was 74 h; in series [7] it was 1860. For the same compound, the IC50 in [8] is > 30 µM.
With `CC(C)(C)c1ccc(NC(=O)c2ccc3c(c2)CCCCC3)cc1`, the “log(activity)” value in the series with Chikungunya virus [1] worked out at 4.2. Further, the concentration giving a half-maximal response (EC50) with Chikungunya virus [2] was 7 µM. Moreover, the CC50 at 24 h in series [4] was > 30 µM. For the same compound, the CC50 in [9] was > 30 µM.
Regarding `COc1cc2c(cc1C(=O)Nc1cc(C(C)(C)C)[nH]n1)CCCCC2`, the half-inhibitory concentration (IC50) in series [8] was > 30 µM.
Consider `COc1cc2c(cc1NC(=O)c1ccc(C(O)(C(F)(F)F)C(F)(F)F)cc1)CCCCC2`, for which the “log(activity)” value in the series on Chikungunya virus [1] was 3.1. Further, in [3] (aqueous, read-out: solubility), the solubility was < 1 µM. For the same compound, the EC50 in the series on Chikungunya virus [2] is 2.8 µM. Also, in series [4], the CC50 at 24 h is > 30 µM. Besides, in series [5], the log distribution coefficient (logD) was 5. The results for the half-life in series [6] and in series [7] were 70 h and 660, respectively.
For the compound `Cc1cc2c(cc1NC(=O)c1ccc(C(C)(C)C)cc1)CCCCC2`, the “log(activity)” value in the series with Chikungunya virus [1] stood at 3.5. The solubility in series [3] (aqueous, read-out: solubility) was < 1 µM. For the same compound, in the series with Chikungunya virus [2], the EC50 amounted to 2.41 µM. Besides, in series [4], the CC50 at 24 h is > 30 µM. Also, in series [5], the pH-dependent lipophilicity (logD) was 4. The half-life in [6] was 63 h; in [7] it was 660.
With `COc1cc2c(cc1C(=O)Nc1ccc(C(C)(C)C)cn1)CCCCC2`, the IC50 in [8] was > 30 µM.
`COc1cc2c(cc1C(=O)Nc1ccc(C(C)(C)O)cc1)CCCCC2`: the “log(activity)” value in the series with Chikungunya virus [1] is listed as 1.6. For the same compound, the EC50 in the series with Chikungunya virus [2] stood at 8 µM. Besides, in series [4], the half-maximal cytotoxic concentration (CC50) at 24 h was > 30 µM. The same compound had an IC50 in series [8] of 24.1 µM.
`CC(C)(C)c1ccc(C(=O)Nc2cc3c(cc2F)CCCCC3)cc1`: in the series with Chikungunya virus [1], the “log(activity)” value is reported as 4.9. Moreover, the solubility in series [3] (aqueous, read-out: solubility) worked out at 33 µM (≈ 11.2 µg/mL). In the series on Chikungunya virus [2], the half-maximal effective concentration (EC50) was 0.8 µM. In [4], the CC50 at 24 h is > 30 µM. The compound also displayed a logD in series [5] of 4. Further, the half-life in [6] was 28 h. Further, the t1/2 in series [7] (microsomes, 0.75 h) was determined as 4.
As to `CC(C)(C)c1ccc(C(=O)Nc2cc3c(cc2OCc2ccccn2)CCCCC3)cc1`, the “log(activity)” value in the series on Chikungunya virus [1] is reported as <1. The cytotoxic concentration (CC50) with NHDF stood at 9.4 µM.
As for `CCc1cc2c(cc1NC(=O)c1ccc(C(C)(C)C)cc1)CCCCC2`, the “log(activity)” value in the series with Chikungunya virus [1] was found to be 4.9. In addition, the solubility in series [3] (aqueous, read-out: solubility) was < 1 µM. For the same compound, the concentration giving a half-maximal response (EC50) in the series with Chikungunya virus [2] came to 1.7 µM. Further, the CC50 at 24 h in series [4] was > 30 µM. This compound also gave a log distribution coefficient (logD) in [5] of 5. The half-life in series [6] is 37 h; in [7] it was 660. Moreover, the IC50 in series [8] is > 30 µM.
For `COc1cc2c(nc1NC(=O)c1ccc(C(C)(C)C)cn1)CCCCC2`, the “log(activity)” value in the series on Chikungunya virus [1] was 4.05. For the same compound, the concentration for a half-maximal effect (EC50) in the series with Chikungunya virus [2] turned out to be 2.9 µM. Moreover, the CC50 at 24 h in series [4] was > 30 µM. Also, the IC50 in series [8] was > 30 µM.
Turning to `COc1nc2c(cc1C(=O)Nc1ncc(C(C)(C)C)cn1)CCCCC2`, the “log(activity)” value in the series on Chikungunya virus [1] was found to be 1.95. In addition, in [3] (buffer), the solubility amounted to 64 µM (≈ 22.7 µg/mL). Further, the concentration for a half-maximal effect (EC50) in the series with Chikungunya virus [2] is 9 µM. The CC50 at 24 h in [4] is > 30 µM. The compound also yielded a log distribution coefficient (logD) in series [5] of 3. Moreover, the half-life in series [6] was 67 h; in [7], 1620.
Regarding `COc1cc2c(cc1NC(=O)c1ccc(C3(C(F)(F)F)CC3)cc1)CCCCC2`, in the series with Chikungunya virus [1], the “log(activity)” value came out at 1. Also, in [3] (aqueous, read-out: solubility), the solubility is < 1 µM. The EC50 in the series on Chikungunya virus [2] amounted to 1.3 µM. Moreover, the CC50 at 24 h in [4] was > 30 µM. For the same compound, the logD in series [5] turned out to be 6. For the same compound, the half-life in [6] was 67 h; in [7], 1320.
Turning to `COc1cc2c(cc1C(=O)Nc1ccc(C(C)(C)C)cc1)CCCCC2`, the “log(activity)” value in the series on Chikungunya virus [1] is given as 3.2; with West Nile virus, 1.7; in the series with dengue virus type 2, 1.9. The solubility in series [3] (aqueous, read-out: solubility) amounted to 0.5 µM (≈ 0.176 µg/mL). The half-maximal effective concentration (EC50) with Chikungunya virus [2] stood at 0.48 µM. In addition, in series [4], the CC50 at 24 h is > 30 µM. The same compound came in with a logD in [5] of 4. The half-life in series [6] was 99 h. The concentration for an effect of 90% (EC90) was 1.6 µM with Chikungunya virus [10] and 2.9 µM in series [11]. For the same compound, in series [8], inhibition was half-maximal at 3 µM (IC50).
Regarding `CC(C)(C)c1ccc(C(=O)Nc2ccc3c(c2)CCCCC3)cc1`, in the series with Chikungunya virus [1], the “log(activity)” value is on record as 3.9. For the same compound, in series [3] (buffer), the solubility is 35 µM (≈ 11.3 µg/mL). Further, the concentration giving a half-maximal response (EC50) in the series with Chikungunya virus [2] worked out at 0.7 µM. Moreover, the CC50 at 24 h in series [4] was > 30 µM. Besides, the logD in series [5] was 4. Moreover, the half-life in series [6] is 33 h; in series [7] it was 1380.
Turning to `CC(C)(C)c1ccc(NC(=O)c2cc3c(cc2O)CCCCC3)cc1`, the “log(activity)” value with Chikungunya virus [1] came to 3.3. The solubility in series [3] (aqueous, read-out: solubility) is < 1 µM. Also, the half-maximal effective concentration (EC50) in the series with Chikungunya virus [2] was 1.54 µM. Further, the CC50 at 24 h in series [4] is > 30 µM. In addition, in [5], the logD turned out to be 4.2. Also, the results for the half-life in series [6] and in series [7] were 49 h and 4680, respectively. The 50% inhibitory concentration (IC50) in series [8] was > 30 µM.
